A value given as a limit tells only on which side of the number the result lay.

Broadly, the IC50 is the concentration that gives 50% inhibition.

This assay has as its system peripheral blood mononuclear cells (PBMC) stimulated with allogeneic PBMC or EBV-transformed human B cells (RPMI1788). The experiment in a line: Mixed lymphocyte reaction (MLR) assay. The class given is cell-based. As to conditions: Homo sapiens, RPMI-1788; MLR assay of example 319; read-out: MLR IC50. The essentials: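 Responder PBMC co-cultured in triplicate with 30 Gy-irradiated allogeneic PBMC or RPMI1788 B cells plus compound (DMSO stock 10 mM, diluted in medium). After 5 days at 37° C, 1 μCi [3H]-thymidine added for 16 h more; incorporated cpm counted and proliferation inhibition calculated.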
For `Cc1cccc(NC(=O)N2CCN(c3nc(N)nc4ccc(-c5ccc(C(F)(F)F)cc5)nc34)CC2)c1` [Example 548, 2-amino-4-[(3-methylphenylcarbamoyl)-piperazin-1-yl]-6-(4-trifluoromethylphenyl)-pyrido[3,2-d]pyrimidine], the IC50 was 0.17 µM.

Take `Cc1cccc(NC(=O)N2CCN(c3nc(N)nc4ccc(-c5ccccc5Cl)nc34)CC2)c1` [Example 549, 2-amino-4-[(3-methylphenylcarbamoyl)-piperazin-1-yl]-6-(2-chlorophenyl)-pyrido[3,2-d]pyrimidine]: the IC50 turned out to be 0.08 µM. To `Cc1cccc(NC(=O)N2CCN(c3nc(N)nc4ccc(-c5c(C)cccc5C)nc34)CC2)c1` [Example 550, 2-amino-4-[(3-methylphenylcarbamoyl)-piperazin-1-yl]-6-(2,6-dimethyl-phenyl)-pyrido[3,2-d]pyrimidine] belongs 3.5 µM. Next, `Cc1cccc(NC(=O)N2CCN(c3nc(N)nc4ccc(-c5c(F)cc(F)cc5F)nc34)CC2)c1` [Example 551, 2-amino-4-[(3-methylphenylcarbamoyl)-piperazin-1-yl]-6-(2,4,6-trifluoro-phenyl)-pyrido[3,2-d]pyrimidine]: 0.5 µM; `Cc1cccc(NC(=O)N2CCN(c3ncnc4ccc(-c5ccc(C#N)cc5)nc34)CC2)c1` [Example 553, 4-[(3-methylphenylcarbamoyl)-piperazin-1-yl]-6-(4-cyanophenyl) Pyrido[3,2-d]pyrimidine]: 0.06 µM. To `Cc1cccc(NC(=O)N2CCN(c3ncnc4ccc(-c5cccc(C#N)c5)nc34)CC2)c1` [Example 554, 4-[(3-methylphenylcarbamoyl)-piperazin-1-yl]-6-(3-cyanophenyl)pyrido[3,2-d]pyrimidine] belongs 0.037 µM; to `Cc1cccc(NC(=O)N2CCN(c3ncnc4ccc(-c5ccc(F)c(C)c5)nc34)CC2)c1` [Example 555, 4-[(3-methylphenylcarbamoyl)-piperazin-1-yl]-6-(3-methyl-4-fluoro-phenyl)pyrido[3,2-d]pyrimidine], 0.3 µM; to `Cc1cccc(NC(=O)N2CCN(c3ncnc4ccc(-c5ccc(F)cc5F)nc34)CC2)c1` [Example 556, 4-[(3-methylphenylcarbamoyl)-piperazin-1-yl]-6-(2,4-difluorophenyl)pyrido[3,2-d]pyrimidine], 0.1 µM. On to `Cc1cccc(NC(=O)N2CCN(c3ncnc4ccc(-c5ccccc5C#N)nc34)CC2)c1` [Example 557, 4-[(3-methylphenylcarbamoyl)-piperazin-1-yl]-6-(2-cyanophenyl)pyrido[3,2-d]pyrimidine], for which the IC50 was found to be 0.03 µM. To `Cc1cccc(NC(=O)N2CCN(c3ncnc4ccc(-c5ccc(F)cc5)nc34)CC2)c1` [Example 558, 4-[(3-methylphenylcarbamoyl)-piperazin-1-yl]-6-(4-fluorophenyl)pyrido[3,2-d]pyrimidine] belongs 0.039 µM; to `CCOc1ccc(-c2ccc3ncnc(N4CCN(C(=O)Nc5cccc(C)c5)CC4)c3n2)cc1F` [Example 559, 4-[(3-methylphenylcarbamoyl)-piperazin-1-yl]-6-(3-fluoro-4-ethoxyphenyl)pyrido[3,2-d]pyrimidine], 0.178 µM. Next, `CCOc1ccc(-c2ccc3ncnc(N4CCN(C(=O)Nc5cccc(C)c5)CC4)c3n2)cc1Cl` [Example 560, 4-[(3-methylphenylcarbamoyl)-piperazin-1-yl]-6-(3-chloro-4-ethoxyphenyl)pyrido[3,2-d]pyrimidine]: 0.38 µM; `Cc1cccc(NC(=O)N2CCN(c3ncnc4ccc(-c5cc(F)c(F)c(F)c5)nc34)CC2)c1` [Example 561, 4-[(3-methylphenylcarbamoyl)-piperazin-1-yl]-6-(3,4,5-trifluorophenyl)pyrido[3,2-d]pyrimidine]: 0.42 µM. To `Cc1cccc(NC(=O)N2CCN(c3ncnc4ccc(-c5cccs5)nc34)CC2)c1` [Example 562, 4-[(3-methylphenylcarbamoyl)-piperazin-1-yl]-6-(2-thienyl)pyrido[3,2-d]pyrimidine] belongs 0.053 µM. With `Cc1cccc(NC(=O)N2CCN(c3ncnc4ccc(-c5ccco5)nc34)CC2)c1` [Example 563, 4-[(3-methylphenylcarbamoyl)-piperazin-1-yl]-6-(2-furanyl)pyrido[3,2-d]pyrimidine], the IC50 turned out to be 0.036 µM. To `CC(C)(C)OC(=O)N1CCN(c2nc(Cl)nc3ccc(-c4ccc(F)cc4)nc23)CC1` [Example 566, 2-chloro-6-(4-fluorophenyl)-4-(4-Boc-piperazino)pyrido[3,2-d]pyrimidine] belongs greater than 10 µM; to `CC(C)(C)OC(=O)N1CCN(c2nc(N3CCCC3)nc3ccc(-c4ccc(F)cc4)nc23)CC1` [Example 567, 6-(4-fluorophenyl)-4-(4-Boc-piperazino)-2-pyrrolidino-pyrido[3,2-d]pyrimidine], greater than 10 µM.

As to `CC(C)(C)OC(=O)N1CCN(c2nc(NC3CCCC3)nc3ccc(-c4ccc(F)cc4)nc23)CC1` [Example 568, 2-cyclopentylamino-6-(4-fluorophenyl)-4-(4-Boc-piperazino)-pyrido[3,2-d]pyrimidine], the half-maximal inhibitory concentration (IC50) was found to be 6.5 µM. To `CNc1nc(N2CCN(C(=O)OC(C)(C)C)CC2)c2nc(-c3ccc(F)cc3)ccc2n1` [Example 569, 2-methylamino-6-(4-fluorophenyl)-4-(4-Boc-piperazino)-pyrido[3,2-d]pyrimidine and 2,4-dimethylamino-6-(4-fluorophenyl)pyrido[3,2-d]pyrimidine] belongs 5.9 µM.

With `Cc1cccc(NC(=O)N2CCN(c3nc(NC4CCCC4)nc4ccc(-c5ccc(F)cc5)nc34)CC2)c1` [Example 571, 2-cyclopentylamino-6-(4-fluorophenyl)-4-[(3-methylphenylcarbamoyl)-piperazin-1-yl]-pyrido[3,2-d]pyrimidine], the IC50 is 0.5 µM.

On to `O=C(COc1ccc(Cl)cc1)N1CCN(c2nc(NC3CCCC3)nc3ccc(-c4ccc(F)cc4)nc23)CC1` [Example 573, 2-cyclopentylamino-6-(4-fluorophenyl)-4-[N-(4-chlorophenoxyacetyl)-piperazin-1-yl]-pyrido[3,2-d]pyrimidine], for which the concentration for half-maximal inhibition (IC50) turned out to be 8 µM.

Take `CNc1nc(N2CCN(C(=O)COc3ccc(Cl)cc3)CC2)c2nc(-c3ccc(F)cc3)ccc2n1` [Example 574, 2-methylamino-4-[N-(4-chlorophenoxyacetyl)-piperazin-1-yl]-6-(4-fluorophenyl)-pyrido[3,2-d]pyrimidine]: the IC50 was found to be 0.336 µM. Next, `CC(C)(C)OC(=O)N[C@@H]1CCN(c2nc(N)nc3ccc(-c4ccc(F)cc4)nc23)C1` [Example 575, 2-amino-4-[(R)-3-Boc-amino-pyrrolidin-1-yl]-6-(4-fluorophenyl)-pyrido(3,2-d)pyrimidine]: greater than 10 µM. Next, `CC(C)(C)OC(=O)N[C@H]1CCN(c2nc(N)nc3ccc(-c4ccc(F)cc4)nc23)C1` [Example 576, 2-amino-4-[(S)-3-Boc-amino-pyrrolidin-1-yl]-6-(4-fluorophenyl)-pyrido(3,2-d)pyrimidine]: 4.2 µM; `CC(C)(C)OC(=O)N1CCC(Nc2nc(N)nc3ccc(-c4ccc(F)cc4)nc23)C1` [Example 577, 2-amino-4-[(S)-1-Boc-amino-pyrrolidin-3-yl]-6-(4-fluorophenyl)-pyrido(3,2-d)pyrimidine]: 4.4 µM; `Cc1cccc(NC(=O)N[C@H]2CCN(c3nc(N)nc4ccc(-c5ccc(F)cc5)nc34)C2)c1` [Example 578]: greater than 10 µM.

The values are drawn from patent US20090264415A2 (priority 2004, published 2009).
